Where a SMILES comes first, the peptide text is derived from it. The star is where a group is joined. X1 = CSCCc1ccc(NC(=O)NCc2ccc3c(c2)CN(C2CCC(=O)N(CN*)C2=O)C3=O)cc1Cl; Hexanoyl(6-maleimido) = O=C1C=CC(=O)N1CCCCCC(=O)*
Legend:
[1] = biological target: T1, β-glucuronidase (Escherichia coli, UniProt P05804); assay: β-Glucuronidase digestion, in vitro payload release; format: biochemical
T1 construct: purchased Sigma Type IX-A
Protocol: 10 μM Compound (XLI) was incubated with β-glucuronidase (Sigma, Type IX-A; 1 mg/mL solution in PBS, […]) and the reaction mixture was incubated at 37° C. for 3 hours with gentle shaking. The digests were extracted with 5 volumes of ice-cold acetonitrile and dried down, followed by reconstitution in 95:5:0.1 water:acetonitrile:formic acid. The samples were submitted for LC-MS analysis (Thermo Exploris 240) and using the appropriate reference standards, the released payload and/or incompletely cleaved linker byproducts were identified and quantified.

[2] = biological target: T2, papain (Carica papaya, UniProt P00784); assay: Papain digestion 2 of linker-payload compounds, in vitro payload release; format: biochemical; conditions: for % Payload Released / By-Products: GGFG*G (payload-CH2NHC(O)CH2NH2, cleavage between two glycines of linker) / By-Products: uncleaved: 10 μM compound, papain 2 molar equivalents, 2 hours; for % Payload Released: PBS pH 7.4, 5% DMA, room temperature; for yield of desired payload released by papain (in words): papain treatment; for By-Products: GGFG*G (payload-CH2NHC(O)CH2NH2, cleavage between two glycines of linker) / By-Products: uncleaved: PBS pH 7.4, room temperature
T2 sequence (P00784 134-345): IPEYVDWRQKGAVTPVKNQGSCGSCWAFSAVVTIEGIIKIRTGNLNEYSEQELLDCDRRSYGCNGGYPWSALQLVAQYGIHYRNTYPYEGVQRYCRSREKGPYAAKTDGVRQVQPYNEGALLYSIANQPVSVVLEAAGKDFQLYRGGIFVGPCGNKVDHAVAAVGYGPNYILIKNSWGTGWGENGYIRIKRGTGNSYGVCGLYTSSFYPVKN
Protocol: 10 μM of either Compound (XL), Compound (XI), Compound (XIV), Compound (XV), Compound (XII), or Compound (XVII) (PBS pH 7.4, 5% DMA co-solvent) was incubated with papain (2 molar equivalents) at room temperature for 2 hours with gentle shaking. The digests were extracted with 5 volumes of ice-cold acetonitrile and dried down, followed by reconstitution in 95:5:0.1 water:acetonitrile:formic acid. The samples were submitted for LC-MS analysis (Thermo Exploris 240) and using the appropriate reference standards, the released payload and/or incompletely cleaved linker byproducts were identified and quantified.

[3] = biological target: T3, CD33 (UniProt P20138 18-364, limits assumed); assay: flow cytometry binding to MV4-11 cells (procedure of Example 10)
T3 construct: whole, on cells; Endogenous antigen on the cell line; also called CD33 surface antigens
T3 sequence (P20138 18-364 limits assumed): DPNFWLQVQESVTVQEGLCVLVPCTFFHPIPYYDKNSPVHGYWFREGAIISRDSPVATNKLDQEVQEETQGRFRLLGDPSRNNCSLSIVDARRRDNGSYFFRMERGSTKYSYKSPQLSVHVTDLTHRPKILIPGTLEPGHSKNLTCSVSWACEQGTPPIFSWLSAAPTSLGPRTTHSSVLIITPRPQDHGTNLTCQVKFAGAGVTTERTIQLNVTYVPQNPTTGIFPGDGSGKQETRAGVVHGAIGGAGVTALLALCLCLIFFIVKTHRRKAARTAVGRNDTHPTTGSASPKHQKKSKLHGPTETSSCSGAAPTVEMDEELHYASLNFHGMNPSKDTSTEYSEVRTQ

T1 sequence (P05804 whole entry): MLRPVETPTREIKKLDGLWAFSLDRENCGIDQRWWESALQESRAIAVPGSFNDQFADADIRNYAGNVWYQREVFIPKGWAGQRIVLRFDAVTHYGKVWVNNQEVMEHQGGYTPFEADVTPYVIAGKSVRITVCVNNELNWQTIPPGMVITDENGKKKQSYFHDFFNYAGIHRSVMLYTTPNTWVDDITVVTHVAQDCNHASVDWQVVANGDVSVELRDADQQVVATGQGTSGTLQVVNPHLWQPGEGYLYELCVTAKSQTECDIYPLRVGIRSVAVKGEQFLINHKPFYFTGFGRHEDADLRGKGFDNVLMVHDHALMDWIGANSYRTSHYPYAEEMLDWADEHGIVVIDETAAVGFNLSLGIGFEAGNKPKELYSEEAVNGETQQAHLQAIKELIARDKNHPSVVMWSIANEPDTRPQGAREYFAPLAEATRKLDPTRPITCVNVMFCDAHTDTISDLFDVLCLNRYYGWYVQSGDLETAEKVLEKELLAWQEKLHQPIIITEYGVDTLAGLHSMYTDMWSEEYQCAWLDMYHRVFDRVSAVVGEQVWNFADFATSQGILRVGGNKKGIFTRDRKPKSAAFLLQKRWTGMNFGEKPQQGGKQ

## CNCCOCCc1ccc(NC(=O)NCc2ccc3c(c2)CN(C2CCC(=O)N(CN(C)C(=O)OCc4ccc(O[C@@H]5O[C@H](C(=O)O)[C@@H](O)[C@H](O)[C@H]5O)c(NC(=O)CCNC(=O)CCN5C(=O)C=CC5=O)c4)C2=O)C3=O)cc1Cl (stereo partly drawn) [Compound (XLI), (2S,3S,4S,5R,6S)-6-[4-({[({3-[5-({[(3-chloro-4-{2-[2-(methylamino)ethoxy]ethyl}phenyl)carbamoyl]amino}methyl)-1-oxo-3H-isoindol-2-yl]-2,6-dioxopiperidin-1-yl}methyl)(methyl)carbamoyl]oxy}methyl)-2-{3-[3-(2,5-dioxopyrrol-1-yl)propanamido]propanamido}phenoxy]-3,4,5-trihydroxyoxane-2-carboxylic acid]
[1]; 10 μM compound, β-glucuronidase, 37° C., 3 hours
  % Payload Released: 90.9%
[1]; β-glucuronidase treatment
  yield of desired payload released by β-glucuronidase (in words): excellent yield

## CNCCOCCc1ccc(NC(=O)NCc2ccc3c(c2)CN(C2CCC(=O)N(CNC(=O)CNC(=O)[C@H](Cc4ccccc4)NC(=O)CNC(=O)CNC(=O)CCCCCN4C(=O)C=CC4=O)C2=O)C3=O)cc1Cl (stereo partly drawn) [Compound (XVIII), N-{[({[(1S)-1-({[({3-[5-({[(3-chloro-4-{2-[2-(methylamino)ethoxy]ethyl}phenyl)carbamoyl]amino}methyl)-1-oxo-3H-isoindol-2-yl]-2,6-dioxopiperidin-1-yl}methyl)carbamoyl]methyl}carbamoyl)-2-phenylethyl]carbamoyl}methyl)carbamoyl]methyl}-6-(2,5-dioxopyrrol-1-yl)hexanamide]
[2]
  % Payload Released: 97.8%
  yield of desired payload released by papain (in words): excellent yield

## CSCCc1ccc(NC(=O)NCc2ccc3c(c2)CN(C2CCC(=O)N(CNC(=O)CNC(=O)CNC(=O)[C@H](Cc4ccccc4)NC(=O)CNC(=O)CNC(=O)CCCCCN4C(=O)C=CC4=O)C2=O)C3=O)cc1Cl (stereo partly drawn) [Compound (XVII), N-{[({[(1S)-1-[({[({[3-(5-{[({3-chloro-4-[2-(methylsulfanyl)ethyl]phenyl}carbamoyl)amino]methyl}-1-oxo-3H-isoindol-2-yl)-2,6-dioxopiperidin-1-yl]methyl}carbamoyl)methyl]carbamoyl}methyl)carbamoyl]-2-phenylethyl]carbamoyl}methyl)carbamoyl]methyl}-6-(2,5-dioxopyrrol-1-yl)hexanamide] ({Hexanoyl(6-maleimido)}-GGFGG-X1)
[2]
  % Payload Released: 10.7%
  By-Products: GGFG*G (payload-CH2NHC(O)CH2NH2, cleavage between two glycines of linker): 72.5%,
  By-Products: uncleaved: uncleaved 16.8%
  yield of desired payload released by papain (in words): lower yields of the desired payload

## N#Cc1ccc(O[C@H]2CC[C@H](NC(=O)c3ccc(N4CCC(CN5CCN(c6cc7c(cc6F)C(=O)N(C6CCC(=O)N(CNC(=O)CNC(=O)CNC(=O)[C@H](Cc8ccccc8)NC(=O)CNC(=O)CNC(=O)CCCCCN8C(=O)C=CC8=O)C6=O)C7=O)CC5)CC4)nn3)CC2)cc1Cl (stereo partly drawn) [Compound (XV), 6-(4-{[4-(2-{1-[(2-{2-[(2S)-2-(2-{2-[6-(2,5-dioxopyrrol-1-yl)hexanamido]acetamido}acetamido)-3-phenylpropanamido]acetamido}acetamido)methyl]-2,6-dioxopiperidin-3-yl}-6-fluoro-1,3-dioxoisoindol-5-yl)piperazin-1-yl]methyl}piperidin-1-yl)-N-[(1r,4r)-4-(3-chloro-4-cyanophenoxy)cyclohexyl]pyridazine-3-carboxamide]
[2]
  % Payload Released: 5.8%
  By-Products: GGFG*G (payload-CH2NHC(O)CH2NH2, cleavage between two glycines of linker): 78.3%,
  By-Products: uncleaved: uncleaved 15.8%
  yield of desired payload released by papain (in words): lower yields of the desired payload

## O=C(CCCCCN1C(=O)C=CC1=O)NCC(=O)NCC(=O)N[C@@H](Cc1ccccc1)C(=O)NCC(=O)NCC(=O)NCN1C(=O)CCC(N2Cc3c(C#CCCCNC(=O)c4ccc(NC(=O)[C@@H]5NC6(CCCCC6)[C@@]6(C(=O)Nc7cc(Cl)ccc76)[C@H]5c5cccc(Cl)c5F)cc4)cccc3C2=O)C1=O (stereo partly drawn) [Compound (XII), (3′R,4'S,5′R)-6″-chloro-4′-(3-chloro-2-fluorophenyl)-N-(4-{[5-(2-{1-[(2-{2-[(2S)-2-(2-{2-[6-(2,5-dioxopyrrol-1-yl)hexanamido]acetamido}acetamido)-3-phenylpropanamido]acetamido}acetamido)methyl]-2,6-dioxopiperidin-3-yl}-1-oxo-3H-isoindol-4-yl)pent-4-yn-1-yl]carbamoyl}phenyl)-2″-oxo-1″H-dispiro[cyclohexane-1,2′-pyrrolidine-3′,3″-indole]-5′-carboxamide]
[2]
  % Payload Released: 9.4%
  By-Products: GGFG*G (payload-CH2NHC(O)CH2NH2, cleavage between two glycines of linker): 57.0%,
  By-Products: uncleaved: uncleaved 33.6%
  yield of desired payload released by papain (in words): lower yields of the desired payload

## Cn1cc(-c2cc(NC(=O)CCCCC(=O)NCCCCNc3cccc4c3C(=O)N(C3CCC(=O)N(CNC(=O)CNC(=O)[C@H](Cc5ccccc5)NC(=O)CNC(=O)CNC(=O)CCCCCN5C(=O)C=CC5=O)C3=O)C4=O)ccc2Oc2ccc(F)cc2F)c2cc[nH]c2c1=O.O=C(O)C(F)(F)F (stereo partly drawn) [Compound (XL), N′-[4-(2,4-difluorophenoxy)-3-{6-methyl-7-oxo-1H-pyrrolo[2,3-c]pyridin-4-yl}phenyl]-N-[4-({2-[1-({2-[(2S)-2-(2-{2-[6-(2,5-dioxopyrrol-1-yl)hexanamido]acetamido}acetamido)-3-phenylpropanamido]acetamido}methyl)-2,6-dioxopiperidin-3-yl]-1,3-dioxoisoindol-4-yl}amino)butyl]hexanediamide; trifluoroacetic acid]
[2]
  % Payload Released: 90.2%
  yield of desired payload released by papain (in words): excellent yield

## Cc1sc2c(c1C)C(c1ccc(Cl)cc1)=N[C@@H](CC(=O)NCCCCCC(=O)NCc1cccc3c1C(=O)N(C1CCC(=O)N(CNC(=O)CNC(=O)CNC(=O)[C@H](Cc4ccccc4)NC(=O)CNC(=O)CNC(=O)CCCCCN4C(=O)C=CC4=O)C1=O)C3=O)c1nnc(C)n1-2 (stereo partly drawn) [Compound (XIV), 6-{2-[(9S)-7-(4-chlorophenyl)-4,5,13-trimethyl-3-thia-1,8,11,12-tetraazatricyclo[8.3.0.0^{2,6}]trideca-2(6),4,7,10,12-pentaen-9-yl]acetamido}-N-[(2-{1-[(2-{2-[(2S)-2-(2-{2-[6-(2,5-dioxopyrrol-1-yl)hexanamido]acetamido}acetamido)-3-phenylpropanamido]acetamido}acetamido)methyl]-2,6-dioxopiperidin-3-yl}-1,3-dioxoisoindol-4-yl)methyl]hexanamide]
[2]
  % Payload Released: 11.6%
  By-Products: GGFG*G (payload-CH2NHC(O)CH2NH2, cleavage between two glycines of linker): 40.5%,
  By-Products: uncleaved: uncleaved 47.9%
  yield of desired payload released by papain (in words): lower yields of the desired payload

B1: CD33-D Antibody-Compound (XL) conjugate (antibody, V domains shown)
VH: EVQLVQSGAEVKKPGSSVKVSCKASGYTITDSNIHWVRQAPGQSLEWIGYIYPYNGGTDYNQKFKNRATLTVDNPTNTAYMELSSLRSEDTAFYYCVNGNPWLAYWGQGTLVTVSS
VL: DIQLTQSPSTLSASVGDRVTITCRASESLDNYGIRFLTWFQQKPGKAPKLLMYAASNQGSGVPSRFSGSGSGTEFTLTISSLQPDDFATYYCQQTKEVPWSFGQGTKVEVK
modifications: Compound (XL) linker-payload on reduced interchain cysteine of the constant region, outside this domain; Compound (XL) linker-payload (maleimide) on reduced interchain cysteines of the constant regions, outside this domain; 8.0 Compound (XL)/antibody by LC-MS (Example 2-1)
notes: Antibody-drug conjugate (BRD4 degrader payload)
[3]
  EC50: 0.27 nM

B2: CD33-D antibody (antibody, V domains shown)
VH: EVQLVQSGAEVKKPGSSVKVSCKASGYTITDSNIHWVRQAPGQSLEWIGYIYPYNGGTDYNQKFKNRATLTVDNPTNTAYMELSSLRSEDTAFYYCVNGNPWLAYWGQGTLVTVSS
VL: DIQLTQSPSTLSASVGDRVTITCRASESLDNYGIRFLTWFQQKPGKAPKLLMYAASNQGSGVPSRFSGSGSGTEFTLTISSLQPDDFATYYCQQTKEVPWSFGQGTKVEVK
notes: also called anti-CD33 antibody CD33-D
[3]
  EC50: 0.22 nM

B3: CD33-D Antibody-Compound (XIV) conjugate (antibody, V domains shown)
VH: EVQLVQSGAEVKKPGSSVKVSCKASGYTITDSNIHWVRQAPGQSLEWIGYIYPYNGGTDYNQKFKNRATLTVDNPTNTAYMELSSLRSEDTAFYYCVNGNPWLAYWGQGTLVTVSS
VL: DIQLTQSPSTLSASVGDRVTITCRASESLDNYGIRFLTWFQQKPGKAPKLLMYAASNQGSGVPSRFSGSGSGTEFTLTISSLQPDDFATYYCQQTKEVPWSFGQGTKVEVK
modifications: Compound (XIV) linker-payload on reduced interchain cysteine of the constant region, outside this domain; Compound (XIV) linker-payload on reduced interchain cysteines of the constant regions, outside this domain; 7.9 Compound (XIV)/antibody by LC-MS (Example 2-2)
notes: Antibody-drug conjugate
[3]
  EC50: 0.22 nM
